Laboratory results reported in patent publication US8569295B2, “Bicyclic urea compounds” (Merck Patent GmbH, priority 2009, dated 2013).

Target: T1, RON kinase (Homo sapiens, UniProt Q04912)
T1 construct: purchased Caliper Life Sciences
Assay: RON kinase biochemical mobility shift assay (Caliper Desktop Profiler)
Settings: RON kinase inhibition
Description: (§1) The Aurora assays described here are performed on two Caliper Life Sciences systems: the LC3000 and the Desktop Profiler. The RON kinase assays are performed on the Desktop Profiler only. These provide data on enzyme activity via measurement of the relative amounts of phosphorylated or unphosphorylated fluorescently labelled substrate peptide at the end of an enzymatic reaction. These different states of peptide are resolved by applying a potential difference across the sample. The presence of the charged phosphate group on the product (as opposed to the substrate) causes a different peptide mobility between the two peptides. This is visualized by excitation of the fluorescent label on the substrate and product peptides and represented as peaks within the analysis software.
(§2) The Desktop Profiler utilizes the same priniciple as the LC3000 for calculating percentage conversion of a substrate to product. Caliper Life Sciences provides proprietary flash frozen pre-made 384 well plates containing selected kinases. Each column in the 384 well plate contains a particular selected kinase. A second plate, the ‘substrate plate’ contains a mix of fluorescently labeled peptide substrate and ATP. These are arranged in columns so that transfer for substrate plate to enzyme plate provides the correct enzyme with the correct substrate/ATP concentration. Compounds are added to a thawed enzyme plate in the desired format, in single concentrations. Reactions are initiated by transfer of the substrate/ATP mix from the substrate plate. The enzyme plate is incubated for 90 minutes at 25 C. The reaction is stopped by addition of 70 ul of Stop Buffer (100 mM HEPES pH 7.5, 0.015% Brij-35, 10 mM EDTA (Sigma, E7889)).
(§3) Reading of the plate in the Profiler is identical to the LC3000, and the ratio between substrate and product peaks provides the activity of the enzyme in that well. This is best represented by a plate heat map which colors each well by percent inhibition as compared to positive and negative controls (no inhibitors and no ATP respectively).

T1 sequence (Q04912 25-1400): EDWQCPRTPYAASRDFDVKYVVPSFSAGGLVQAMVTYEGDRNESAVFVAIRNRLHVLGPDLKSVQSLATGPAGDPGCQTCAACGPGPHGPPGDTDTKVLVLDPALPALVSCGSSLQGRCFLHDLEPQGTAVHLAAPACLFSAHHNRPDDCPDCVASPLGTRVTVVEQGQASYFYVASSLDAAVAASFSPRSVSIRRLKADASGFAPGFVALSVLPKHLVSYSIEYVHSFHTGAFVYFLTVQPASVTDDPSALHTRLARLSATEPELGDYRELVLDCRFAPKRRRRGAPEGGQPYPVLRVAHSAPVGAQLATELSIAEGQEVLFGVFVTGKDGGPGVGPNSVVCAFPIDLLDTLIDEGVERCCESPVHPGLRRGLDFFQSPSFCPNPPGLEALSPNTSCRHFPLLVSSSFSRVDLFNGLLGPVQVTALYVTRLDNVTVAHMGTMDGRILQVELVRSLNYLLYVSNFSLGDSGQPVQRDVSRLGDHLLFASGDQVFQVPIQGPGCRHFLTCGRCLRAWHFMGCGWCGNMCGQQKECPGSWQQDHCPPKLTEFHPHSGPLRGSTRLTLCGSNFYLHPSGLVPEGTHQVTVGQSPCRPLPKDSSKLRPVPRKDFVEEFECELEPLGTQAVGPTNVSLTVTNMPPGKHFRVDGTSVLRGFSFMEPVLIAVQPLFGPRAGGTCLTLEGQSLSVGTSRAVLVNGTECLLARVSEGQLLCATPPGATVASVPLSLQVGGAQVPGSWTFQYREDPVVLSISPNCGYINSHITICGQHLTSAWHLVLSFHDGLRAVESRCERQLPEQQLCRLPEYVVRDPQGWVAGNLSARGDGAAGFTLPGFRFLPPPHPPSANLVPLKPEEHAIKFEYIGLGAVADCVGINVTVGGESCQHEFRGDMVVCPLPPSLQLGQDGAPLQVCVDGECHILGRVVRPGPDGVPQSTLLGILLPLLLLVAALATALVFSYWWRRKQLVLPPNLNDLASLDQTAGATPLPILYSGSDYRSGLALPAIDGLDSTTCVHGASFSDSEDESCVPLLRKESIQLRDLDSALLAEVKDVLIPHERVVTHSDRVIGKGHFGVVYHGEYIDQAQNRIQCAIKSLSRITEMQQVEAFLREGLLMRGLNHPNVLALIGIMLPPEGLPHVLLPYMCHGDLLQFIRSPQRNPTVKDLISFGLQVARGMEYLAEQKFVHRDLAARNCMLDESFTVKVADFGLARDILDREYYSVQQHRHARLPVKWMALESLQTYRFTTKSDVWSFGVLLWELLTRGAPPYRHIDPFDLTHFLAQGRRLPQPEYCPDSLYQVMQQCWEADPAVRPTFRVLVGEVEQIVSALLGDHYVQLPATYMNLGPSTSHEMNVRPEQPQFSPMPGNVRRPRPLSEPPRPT

| Structure (SMILES) | IC50 [nM] |
| --- | --- |
| O=C1NCc2c(Oc3ccc(NC(=O)c4cccc(C(F)(F)F)c4F)cc3F)ccnc2N1 [Example 94, 2-fluoro-N-{3-fluoro-4-[(2-oxo-1,2,3,4-tetrahydropyrido[2,3-d]pyrimidin-5-yl)oxy]phenyl}-3-(trifluoromethyl)benzamide] | 10 to 100 |
| Cc1c(C(=O)Nc2ccc(Oc3ccnc4c3C3OCCCN3C(=O)N4)c(F)c2)c(=O)n(-c2ccccc2)n1CC(C)(C)O (centres unmarked) [Example 75, N-{3-fluoro-4-[(6-oxo-3,4,7,11b-tetrahydro-2H,6H-pyrido[2′,3′:4,5]pyrimido[6,1-b][1,3]oxazin-11-yl)oxy]phenyl}-1-(2-hydroxy-2-methylpropyl)-5-methyl-3-oxo-2-phenyl-2,3-dihydro-1H-pyrazole-4-carboxamide] | 100 to 1000 |

The next lines start with the values.

| IC50 [nM] | Structure (SMILES) |
| --- | --- |
| 10 to 100 | CCN1Cc2c(Oc3ccc(NC(=O)Nc4cc(C)cs4)cc3F)ccnc2NC1=O [Example 267, 1-[4-(3-Ethyl-2-oxo-1,2,3,4-tetrahydro-pyrido[2,3-d]pyrimidin-5-yloxy)-3-fluoro-phenyl]-3-(4-methyl-thiophen-2-yl)-urea] |
| 10 to 100 | O=C(Nc1ccc([N+](=O)[O-])cc1)Nc1ccc(Oc2ccnc3c2CNC(=O)N3)c(F)c1 [Example 272, 1-[3-Fluoro-4-(2-oxo-1,2,3,4-tetrahydro-pyrido[2,3-d]pyrimidin-5-yloxy)-phenyl]-3-(4-nitro-phenyl)-urea] |

Target: T2, GST-Aurora A (Homo sapiens, UniProt O14965)
T2 construct: N-terminal GST fusion with full length Aurora A (1-403 amino acids); purchased Carna Biosciences 05-101
T2 sequence (O14965 1-403): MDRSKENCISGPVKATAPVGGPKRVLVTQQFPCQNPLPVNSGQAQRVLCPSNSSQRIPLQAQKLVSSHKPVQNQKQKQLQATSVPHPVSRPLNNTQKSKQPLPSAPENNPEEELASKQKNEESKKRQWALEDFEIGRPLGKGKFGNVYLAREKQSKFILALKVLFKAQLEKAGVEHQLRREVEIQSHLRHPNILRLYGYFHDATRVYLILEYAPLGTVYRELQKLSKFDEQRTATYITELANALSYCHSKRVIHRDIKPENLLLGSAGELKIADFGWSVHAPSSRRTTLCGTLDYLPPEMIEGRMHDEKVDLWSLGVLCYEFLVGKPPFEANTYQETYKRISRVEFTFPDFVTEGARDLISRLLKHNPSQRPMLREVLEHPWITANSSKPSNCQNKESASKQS
Assay: Aurora A kinase biochemical mobility shift assay (Caliper LC3000 / Desktop Profiler)
Settings: AK A (Aurora kinase A) inhibition
Description: as §1
In order to measure inhibitor activity of Aurora A inhibitors in the Caliper Life Sciences LC3000, a TTP Mosquito liquid handling instrument is used to place 0.25 ul of the appropriate concentration of inhibitor in 100% DMSO (for a dose response curve calculation) into each well of a 384-well plate. To this reaction components are added to a final volume of 25 ul: • 0.067 ng/ul GST-Aurora A (Carna Biosciences 05-101. N-terminal GST fusion with full length Aurora A (1-403 amino acids), accession number NP_940835.1). • 15 uM ATP (Fluka, 02055) • 1 mM DTT (Sigma, D0632) • 1 mM MgCl2 (Sigma, M1028) • 1 uM substrate peptide (sequence FITC-LRRASLG-(CONH2), synthesized by Tufts Peptide Synthesis service. • 100 mM HEPES pH 7.5 (Calbiochem, 391338) • 0.015% Brij-35 (Sigma, B4184)
The reaction is incubated for 90 min at 25 C, and then stopped by the addition of 70 ul of Stop buffer (100 mM HEPES pH 7.5, 0.015% Brij-35, 10 mM EDTA (Sigma, E7889)).
The plate is read on a Caliper LC3000 in an Off-Chip mobility shift assay format, using the following parameters for a 12-sipper chip: screening pressure −1.8 psi, upstream voltage −2700, downstream voltage −1000. These conditions cause unphosphorylated substrate and phosphorylated product peptide to resolve as separate peaks allowing direct measurement of percentage of conversion of substrate to product. The percent conversion can be plotted against concentration of inhibitor to produce a sigmoidal dose response curve, from which an IC50 can be calculated using XLFit for Microsoft Excel.
as §2, §3

| Structure (SMILES) | IC50 [nM] |
| --- | --- |
| O=C1NCc2c(Nc3ccc(NC(=O)c4ccccc4)cc3)ccnc2N1 [Example 4, N-(4-(2-oxo-1,2,3,4-tetrahydropyrido [2,3-d]pyrimidin-5-ylamino)phenyl)benzamide] | 10 to 100 |
| CN1Cc2c(Nc3ccc(NC(=O)CC(F)(F)F)cc3)ccnc2NC1=O [Example 24, 3,3,3-trifluoro-N-(4-(3-methyl-2-oxo-1,2,3,4-tetrahydropyrido [2,3-d]pyrimidin-5-ylamino)phenyl) propanamide] | 100 to 1000 |
| CCN1Cc2c(Nc3ccc(NC(=O)c4ccc(F)cc4C(F)(F)F)cc3)ccnc2NC1=O [Example 34, N-(4-(3-ethyl-2-oxo-1,2,3,4-tetrahydropyrido [2,3-d]pyrimidin-5-ylamino)phenyl)-4-fluoro-2-(trifluoromethyl) benzamide] | < 10 |
| O=C(Nc1ccc(Nc2ccnc3c2CN(CCCO)C(=O)N3)cc1)c1ccc(F)cc1C(F)(F)F [Example 32, 4-fluoro-N-(4-(3-(3-hydroxypropyl)-2-oxo-1,2,3,4-tetrahydropyrido [2,3-d]pyrimidin-5-ylamino)phenyl)-2-(trifluoromethyl) benzamide] | < 10 |
| CCN1Cc2c(Nc3ccc(NC(=O)c4ccccc4)cc3)ccnc2NC1=O [Example 35, N-(4-(3-ethyl-2-oxo-1,2,3,4-tetrahydropyrido [2,3-d]pyrimidin-5-ylamino)phenyl) benzamide] | 10 to 100 |
| O=C(Nc1ccc(Nc2ccnc3c2CN(c2ccc(CN4CCCC4)cc2)C(=O)N3)cc1)c1ccccc1 [Example 9, N-(4-(2-oxo-3-(4-(pyrrolidin-1-ylmethyl)phenyl)-1,2,3,4-tetrahydropyrido[2,3-d]pyrimidin-5-ylamino)phenyl)benzamide] | 100 to 1000 |
| CCN1Cc2c(Nc3ccc(NC(=O)c4ccc(F)cc4C(F)(F)F)cc3F)ccnc2NC1=O [Example 36, N-(4-(3-ethyl-2-oxo-1,2,3,4-tetrahydropyrido [2,3-d]pyrimidin-5-ylamino)-3-fluorophenyl)-4-fluoro-2-(trifluoromethyl) benzamide] | < 10 |
| O=C(Nc1ccc(Nc2ccnc3c2CN(CCO)C(=O)N3)cc1)c1ccc(F)cc1C(F)(F)F [Example 30, 4-fluoro-N-(4-(3-(2-hydroxyethyl)-2-oxo-1,2,3,4-tetrahydropyrido [2,3-d]pyrimidin-5-ylamino)phenyl)-2-(trifluoromethyl) benzamide] | 10 to 100 |
| CN(C)CCN1Cc2c(Nc3ccc(NC(=O)c4ccc(F)cc4C(F)(F)F)cc3)ccnc2NC1=O [Example 11, N-(4-(3-(2-(dimethylamino)ethyl)-2-oxo-1,2,3,4-tetrahydropyrido [2,3-d]pyrimidin-5-ylamino)phenyl)-4-fluoro-2-(trifluoromethyl) benzamide] | 100 to 1000 |
| O=C(Nc1ccc(Nc2ccnc3c2CN(CC(F)(F)F)C(=O)N3)cc1)c1ccccc1 [Example 37, N-(4-(2-oxo-3-(2,2,2-trifluoroethyl)-1,2,3,4-tetrahydropyrido[2,3-d]pyrimidin-5-ylmino)phenyl)benzamide] | 10 to 100 |
| O=C(Nc1ccc(Nc2ccnc3c2CN(c2ccccc2)C(=O)N3)c(F)c1)c1cccc(F)c1 [Example 26, 3-fluoro-N-(3-fluoro-4-(2-oxo-3-phenyl-1,2,3,4-tetrahydropyrido [2,3-d]pyrimidin-5-ylamino)phenyl) benzamide] | 10 to 100 |
| CN1Cc2c(Nc3ccc(NC(=O)c4ccc(F)cc4C(F)(F)F)cc3F)ccnc2NC1=O [Example 28, 4-fluoro-N-(3-fluoro-4-(3-methyl-2-oxo-1,2,3,4-tetrahydropyrido [2,3-d]pyrimidin-5-ylamino)phenyl)-2-(trifluoromethyl) benzamide] | < 10 |
| O=C1NCc2c(Nc3ccc(NC(=O)c4ccc(F)cc4C(F)(F)F)cc3)ccnc2N1 [Example 6, 4-fluoro-N-(4-(2-oxo-1,2,3,4-tetrahydropyrido[2,3-d]pyrimidin-5-ylamino)phenyl)-2-(trifluoromethyl) benzamide] | < 10 |

The remaining lines, values ahead:

| IC50 [nM] | Structure (SMILES) |
| --- | --- |
| 10 to 100 | COc1cc(CNC(=O)c2ccc(-c3ccnc4c3CNC(=O)N4)s2)ccc1F [Example 130, N-(4-fluoro-3-methoxybenzyl)-5-(2-oxo-1,2,3,4-tetrahydropyrido[2,3-d]pyrimidin-5-yl)thiophene-2-carboxamide] |
| 100 to 1000 | COc1ccc(CN2Cc3c(Nc4ccc(NC(=O)CC(F)(F)F)cc4)ccnc3NC2=O)cc1 [Example 100, 3,3,3-trifluoro-N-(4-{[3-(4-methoxybenzyl)-2-oxo-1,2,3,4-tetrahydropyrido[2,3-d]pyrimidin-5-yl]amino}phenyl)propanamide] |
| 100 to 1000 | COc1ccc(CN2Cc3c(Nc4ccc(NC(=O)Nc5ccc(F)cc5C(F)(F)F)cc4)ccnc3NC2=O)cc1 [Example 119, N-[4-fluoro-2-(trifluoromethyl)phenyl]-N′-(4-{[3-(4-methoxybenzyl)-2-oxo-1,2,3,4-tetrahydropyrido[2,3-d]pyrimidin-5-yl]amino}phenyl)urea] |
| 10 to 100 | O=C1NCc2c(Nc3ccc(NC(=O)c4ccccc4F)cc3F)ccnc2N1 [Example 118, 2-fluoro-N-{3-fluoro-4-[(2-oxo-1,2,3,4-tetrahydropyrido[2,3-d]pyrimidin-5-yl)amino]phenyl}benzamide] |
| 100 to 1000 | COc1ccc(CN2Cc3c(Nc4ccc(NC(=O)c5cccc(F)c5)cc4F)ccnc3NC2=O)cc1 [Example 113, 3-fluoro-N-(3-fluoro-4-{[3-(4-methoxybenzyl)-2-oxo-1,2,3,4-tetrahydropyrido[2,3-d]pyrimidin-5-yl]amino}phenyl)benzamide] |
| 100 to 1000 | COc1ccc(CN2Cc3c(Nc4ccc(NC(=O)c5ccccc5F)cc4F)ccnc3NC2=O)cc1 [Example 114, 2-fluoro-N-(3-fluoro-4-{[3-(4-methoxybenzyl)-2-oxo-1,2,3,4-tetrahydropyrido[2,3-d]pyrimidin-5-yl]amino}phenyl)benzamide] |
